Data taken from publication PMC6109769, “Calmodulin Enhances Cryptochrome Binding to INAD in Drosophila Photoreceptors” (Frontiers in Molecular Neuroscience, 2018).

Tests used:
[1] = target: T1, CaM (Xenopus laevis, UniProt P0DP33); test: ITC global fit of single titrations and competition experiment (Scheme 5), 5 mM CaCl2; format: binding; details: calculated from global fit Scheme 5
T1 construct: (His)6 (N); made in house; host or cells: Escherichia coli BL21
Method: (§1) Peptide titrations were performed at 25°C using a high-sensitivity VP-isothermal titration calorimetry (ITC) microcalorimeter (MicroCal LLC, Northampton, MA, USA). The reference cell was filled with deionized water. Protein and peptide solutions were prepared by diluting concentrated stock solutions in the reaction buffer (50 mM TrisHCl, pH 7.5, 150 mM NaCl, in the absence or in the presence of 5 mM CaCl2). Apo-protein and peptide solutions were devoid of Ca^2+ ions, as determined by inductively coupled plasma emission spectroscopy, as previously described (Merloni et al., [2014]). […]
(§2) Integrated heat data obtained for each titration were fitted using a nonlinear least-squares minimization algorithm to a theoretical titration curve, using AFFINImeter^2, using both the independent sites and the stoichiometric equilibria approach. ΔH (reaction enthalpy change, cal mol^−1) and Ka (binding constant, M^−1) were the thermodynamic fitting parameters. […] The reaction entropy was calculated using the relationships ΔG = −RTlnKa (R = 1.9872 cal mol^−1 K^−1, T = 298 K) and ΔG = ΔH − TΔS. […] The reliability of the obtained fits was evaluated using the Goodness of Fit (GoF) parameter.
The reaction was monitored using ITC. […]

[2] = target: T1, CaM; test: ITC titration of peptide into Ca2+-loaded CaM (5 mM CaCl2), single-curve fits; format: binding; details: calculated, T = 298 K
Method: as §1, §2

[3] = tested on: CaM-dCRY complex; format: binding, Xenopus laevis; details: ITC, 5 mM CaCl2; INAD peptide 800 μM over CaM 40 μM + dCRY peptide 40 μM (1:1)
Method: Peptide titrations were performed at 25°C using a high-sensitivity VP-isothermal titration calorimetry (ITC) microcalorimeter (MicroCal LLC, Northampton, MA, USA). The reference cell was filled with deionized water. Protein and peptide solutions were prepared by diluting concentrated stock solutions in the reaction buffer (50 mM TrisHCl, pH 7.5, 150 mM NaCl, in the absence or in the presence of 5 mM CaCl2). Apo-protein and peptide solutions were devoid of Ca^2+ ions, as determined by inductively coupled plasma emission spectroscopy, as previously described (Merloni et al., [2014]). Each experiment started with a small injection of 1–2 μL, which was discarded from the analysis of the integrated data, in order to avoid artifacts due to the diffusion through the injection port occurring during the long equilibration period, locally affecting the protein concentration near the syringe needle tip. Care was taken to start the first addition after baseline stability had been achieved. […] To allow the system to reach equilibrium, a spacing of 300 s was applied between each ligand injection.
The reaction was monitored using ITC. […] A fit of the integrated heat data, however, is quite complex, as the binding curve represents the sum of the contributions of the multiple binding isotherms deriving from the different equilibria involved. […]

Structure (SMILES): CC[C@H](C)[C@H](NC(=O)[C@H](CCCCN)NC(=O)[C@H](C)NC(=O)[C@H](CCSC)NC(=O)[C@@H](NC(=O)[C@H](Cc1ccc(O)cc1)NC(=O)CNC(=O)[C@H](Cc1ccccc1)NC(C)=O)[C@@H](C)O)C(=O)N[C@@H](CC(N)=O)C(=O)N[C@@H](CCCCN)C(=O)N[C@@H](CCCNC(=N)N)C(=O)N[C@@H](Cc1ccc(O)cc1)C(=O)N[C@@H](CC(N)=O)C(=O)N[C@@H](CCSC)C(N)=O [INAD230–243]
- ΔSINAD, global fit [1]: +4.42 cal mol^−1 K^−1
- ΔS (INAD) [2]: −11.3 cal mol^−1 K^−1
- heat of reaction on titration of INAD over CaM preincubated with dCRY [3]: absence of significant heat of reaction
